This is an account of results in patent US9714249B2 (Novartis AG, priority 2013, dated 2017).

What is called GI50 is the concentration at which growth is held to half of that of the control. Usually IC50 stands for the concentration that inhibits the measured activity by half. Lower therefore signals greater potency in that assay.

For one experiment, the system named is THP-1 cells. Nature of the experiment: Cell growth inhibition assay (CellTiter-Glo), THP-1. Type of experiment: cell-based, human. Conditions: THP-1, 4 days; for GI50: Homo sapiens, 96 h, half-maximal growth inhibition; for THP-1 TGI: total growth inhibition. The procedure:
The human leukemia cell lines MV-4-11, THP-1 and K-562 were employed to characterize the effect of BET inhibitors on cellular proliferation and viability. Cells were obtained from the American Type Culture Collection (ATCC) and cultured at 37° C. in a humidified 5% CO2 incubator in the following media: MV-4-11: DMEM high glucose (Animed #1-26F01-I), 10% FCS (Animed #2-01F26-I), 4 mM L-Glutamine (Animed #5-10K50), 1 mM Sodium Pyruvate (Animed # G03625P), 1× Penicillin-Streptomycin (Animed # F12478P); K-562: Iscove's MEM (Animed #1-28F16-I), 10% FCS (Animed #2-01F26-I), 4 mM L-Glutamine (Animed #5-10K50), 1× Penicillin-Streptomycin (Animed # F12478P); THP-1: RPMI-1640 (Animed #1-41F01-I), 10% FCS (Animed #2-01F26-I), 2 mM L-Glutamine (Animed #5-10K50), 10 mM HEPES (Animed #5-31F100), 1 mM Sodium Pyruvate (Animed # G03625P), 1× Penicillin-Streptomycin (Animed # F12478P). The AML lines MV-4-11 and THP-1 are very sensitive to BET inhibitors and show massive cell death upon BET inhibition (Zuber et al., Nature, 478 (2011), 524-8). Compound-mediated suppression of cell proliferation/viability was assessed by quantification of cellular ATP levels using the CellTiter-Glo (CTG) reagent (Promega). Briefly, cells were seeded in 20 μl fresh medium into 384-well plates, followed by addition of 5 μl medium containing compound dilutions at 5-fold their final intended concentration. Dose-response effects were assessed by 3-fold serial dilutions of the test compound, starting at 10 μM. Following incubation of the cells for 4 days at 37° C. and 5% CO2, the effect of inhibitors on cell viability was quantified following addition of 20 μl CTG and luminescence quantification (integration time: 100 ms) as per vendor manual, using a correspondingly equipped Tecan M200 multi-mode platereader (TECAN, Switzerland). For data analysis, the assay background value determined in wells containing medium, but no cells, was subtracted from all data points. To enable differentiation of cytotoxic from cytostatic compounds, the number of viable cells is assessed relative to that observed at the time of compound addition using a separate cell plate (day 0). The effect of a particular test compound concentration on cell proliferation/viability is expressed as percentage of the background- and day 0-corrected luminescence reading obtained for cells treated with vehicle only (DMSO, 0.1% final concentration), which is set as 100%, whereas that luminescence reading for wells containing medium is set as −100%. Compound concentrations leading to half-maximal (1050) and total growth inhibition (TGI) were determined using standard four parameter curve fitting.

The target of another experiment is BRD3 (His-Brd3(20-477)) (Homo sapiens (Human), UniProt Q15059). Nature of the experiment: TR-FRET in-vitro binding assay for BRD3. Conditions: acetyl-histone H4 peptide. How it is done:
All assays were performed in 384 well microtiter plates. Each assay plate contained 8-point serial dilutions for 40 test compounds, plus 16 high- and 16 low controls. Liquid handling and incubation steps were done on an Innovadyne Nanodrop Express equipped with a robotic arm (Thermo CatX, Perkin Elmer/Caliper Twister II) and an incubator (Liconic STX40, Thermo Cytomat 2C450). The assay plates were prepared by addition of 50 nl per well of compound solution in 90% DMSO HummingBird nanodispenser (Zinsser Analytic). The assay was started by stepwise addition of 4.5 μl per well of bromo domain protein (50 mM HEPES, pH 7.5, 0.005% Tween20, 0.1% BSA, 50 mM NaCl, 45 nM His-Brd2(60-472) or 45 nM His-Brd3(20-477) or 45 nM His-Brd4(44-477) all proteins produced in-house) and 4.5 μl per well of peptide solution (50 mM HEPES, pH 7.5, 0.005% Tween20, 0.1% BSA, 50 mM NaCl, 60 nM acetyl-histone H4 (AcK 5, 8, 12, 16) (Biosyntan GmbH)). Reactions were incubated at 30° C. for 35 minutes. Subsequently 4.5 μl per well detection mix (50 mM HEPES, pH 7.5, 0.005% Tween20, 0.1% BSA, 50 mM NaCl, 3 nM Eu-labeled anti-His6 antibody, 21 nM streptavidin-allophycocyanin) were added. After 35 minutes incubation at 30° C., plates were measured in a Perkin Elmer EnVision multilabel reader. Concentrations causing 50% inhibition (1050) values were determined from percent inhibition values at different compound concentrations by non-linear regression analysis.
Test compounds were dissolved in DMSO (10 mM) and transferred into 1.4 mL flat bottom or V-shaped Matrix tubes carrying a unique 2D matrix. The stock solutions were stored at […] if not used immediately. For the test procedure the vials were defrosted and identified by a scanner whereby a working sheet was generated that guided the subsequent working steps. Compound dilutions were made in 96 well plates. This format enabled the assay of maximally 40 individual test compounds at 8 concentrations (single points) including 4 reference compounds, if desired (known BET inhibitors from the prior art, for this and other assays of the type disclosed herein). The dilution protocol included the production of “pre-dilution plates”, “master plates” and “assay plates”.
Pre-dilution plates: 96 polypropylene well plates were used as pre-dilution plates. A total of 4 pre-dilution plates were prepared including 10 test compounds each on the plate positions A1-A10, one standard compound at A11 and one DMSO control at A12. All dilution steps were done on a HamiltonSTAR robot. Master plates: 30 μL of individual compound dilutions including standard compound and controls of the 4 “pre-dilution plates” were transferred into a 384 “master plate” including the following concentrations 10000, 3003, 1000, 300, 100, 30, 10 and 3 μM, respectively in 90% of DMSO. Assay plates: Identical “assay plates” were then prepared by pipetting 50 nL each of compound dilutions of the “master plates” into 384-well “assay plates” by means of a HummingBird 384-channel dispenser. These plates were used directly for the assay which was performed in a total volume of 13.55 μL. This led to a final compound concentration of 37, 11, 3.7, 1.1, 0.37, 0.11, 0.037 and 0.011 μM and a final DMSO concentration of 0.37% in the assay. Cell Growth Inhibition Assay
Background: Time-resolved FRET reads energy transfer from a long-lived donor to a nearby acceptor.

Sequence of BRD3 (His-Brd3(20-477)) (Q15059 20-477, species assumed): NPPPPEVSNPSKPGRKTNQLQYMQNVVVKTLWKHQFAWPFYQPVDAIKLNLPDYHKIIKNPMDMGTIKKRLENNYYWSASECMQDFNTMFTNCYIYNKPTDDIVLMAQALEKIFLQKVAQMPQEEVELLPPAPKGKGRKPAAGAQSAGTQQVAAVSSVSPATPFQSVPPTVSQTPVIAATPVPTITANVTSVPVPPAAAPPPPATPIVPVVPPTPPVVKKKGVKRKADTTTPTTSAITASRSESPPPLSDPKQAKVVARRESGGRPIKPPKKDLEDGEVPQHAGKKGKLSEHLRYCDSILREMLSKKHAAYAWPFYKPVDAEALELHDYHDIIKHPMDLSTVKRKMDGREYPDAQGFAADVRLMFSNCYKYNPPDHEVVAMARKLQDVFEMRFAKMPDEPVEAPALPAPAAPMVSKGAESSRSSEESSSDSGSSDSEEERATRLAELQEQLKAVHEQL

For the molecule `Cc1nn(C)c2c1C(=O)N(c1cc(C)c(=O)n(C)c1)C2c1ccc(Cl)cc1` (stereo not drawn) [Example 10, 6-(4-chlorophenyl)-5-(1,5-dimethyl-6-oxo-1,6-dihydropyridin-3-yl)-1,3-dimethyl-5,6-dihydropyrrolo[3,4-c]pyrazol-4(1H)-one], in the experiment on THP-1 cells, the GI50 is 0.0764 µM and the “THP-1 TGI” value is 0.132 µM. Besides, the half-maximal inhibitory concentration (IC50) at BRD3 (His-Brd3(20-477)) amounted to 0.062 µM.
In the same order, the values of `Cc1nn(C2CC2)c2c1C(=O)N(c1cc(C)c(=O)n(C)c1)C2c1ccc(Cl)cc1` (stereo not drawn) [Example 11, 6-(4-chlorophenyl)-1-cyclopropyl-5-(1,5-dimethyl-6-oxo-1,6-dihydropyridin-3-yl)-3-methyl-5,6-dihydropyrrolo[3,4-c]pyrazol-4(1H)-one] are 0.0366 µM, 0.0822 µM and 0.034 µM.
As to `Cc1nn(C(C)C)c2c1C(=O)N(c1cc(C)c(=O)n(C)c1)C2c1ccc(Cl)cc1` (stereo not drawn) [Example 12, 6-(4-chlorophenyl)-5-(1,5-dimethyl-6-oxo-1,6-dihydropyridin-3-yl)-1-isopropyl-3-methyl-5,6-dihydropyrrolo[3,4-c]pyrazol-4(1H)-one], in the experiment on THP-1 cells, the GI50 was 0.0622 µM and the “THP-1 TGI” value came to 0.112 µM. The molecule also gave an IC50 at BRD3 (His-Brd3(20-477)) of 0.046 µM.
As for `COc1ccc(-n2nc(C)c3c2C(c2ccc(Cl)cc2)N(c2cc(C)c(=O)n(C)c2)C3=O)cc1` (stereo not drawn) [Example 13, 6-(4-chlorophenyl)-5-(1,5-dimethyl-6-oxo-1,6-dihydropyridin-3-yl)-1-(4-methoxyphenyl)-3-methyl-5,6-dihydropyrrolo[3,4-c]pyrazol-4(1H)-one], in the experiment on THP-1 cells, the GI50 amounted to 0.0698 µM and the “THP-1 TGI” value came out at 0.119 µM. At BRD3 (His-Brd3(20-477)), the IC50 amounted to 0.0755 µM.
For `COc1ncc(-n2nc3c(c2C)C(=O)N(c2cc(C)c(=O)n(C)c2)C3c2ccc(Cl)cc2)c(OC)n1` (stereo not drawn) [Example 14, 6-(4-chlorophenyl)-2-(2,4-dimethoxypyrimidin-5-yl)-5-(1,5-dimethyl-6-oxo-1,6-dihydropyridin-3-yl)-3-methyl-5,6-dihydropyrrolo[3,4-c]pyrazol-4(2H)-one], in the experiment with THP-1 cells, the GI50 was found to be 0.219 µM and the “THP-1 TGI” value came out at 0.352 µM. This molecule also had an IC50 at BRD3 (His-Brd3(20-477)) of 0.074 µM.
For `COc1ncccc1-c1nn(C)c2c1C(=O)N(c1cc(C)c(=O)n(C)c1)C2c1ccc(Cl)cc1` (stereo not drawn) [Example 15, 6-(4-chlorophenyl)-5-(1,5-dimethyl-6-oxo-1,6-dihydropyridin-3-yl)-3-(2-methoxypyridin-3-yl)-1-methyl-5,6-dihydropyrrolo[3,4-c]pyrazol-4(1H)-one] the same measures were 0.0678 µM, 0.143 µM and 0.0655 µM.
For `COc1ncccc1-c1nn(C)c2c1C(=O)N(c1cc(C)c(=O)n(C)c1)[C@@H]2c1ccc(Cl)cc1` [Example 16, (R)-6-(4-chlorophenyl)-5-(1,5-dimethyl-6-oxo-1,6-dihydropyridin-3-yl)-3-(2-methoxypyridin-3-yl)-1-methyl-5,6-dihydropyrrolo[3,4-c]pyrazol-4(1H)-one] the same measures were 0.043 µM, 0.0922 µM and 0.052 µM.
`COc1ncccc1-n1nc2c(c1C)C(=O)N(c1cc(C)c(=O)n(C)c1)C2c1ccc(Cl)cc1` (stereo not drawn) [Example 17b, 6-(4-chlorophenyl)-5-(1,5-dimethyl-6-oxo-1,6-dihydropyridin-3-yl)-2-(2-methoxypyridin-3-yl)-3-methyl-5,6-dihydropyrrolo[3,4-c]pyrazol-4(2H)-one]: in the experiment on THP-1 cells, the concentration for 50% growth inhibition (GI50) is 0.0724 µM and the “THP-1 TGI” value was 0.117 µM. Also, the IC50 on BRD3 (His-Brd3(20-477)) is 0.046 µM.
As for `CCOc1ncccc1-n1nc2c(c1C)C(=O)N(c1cc(C)c(=O)n(C)c1)C2c1ccc(Cl)cc1` (stereo not drawn) [Example 18b, 6-(4-chlorophenyl)-5-(1,5-dimethyl-6-oxo-1,6-dihydropyridin-3-yl)-2-(2-ethoxypyridin-3-yl)-3-methyl-5,6-dihydropyrrolo[3,4-c]pyrazol-4(2H)-one], in the experiment on THP-1 cells, the GI50 amounted to 0.044 µM and the “THP-1 TGI” value came out at 0.0931 µM. Besides, the IC50 at BRD3 (His-Brd3(20-477)) came to 0.039 µM.
For `Cc1nn(-c2cccnc2F)c2c1C(=O)N(c1cc(C)c(=O)n(C)c1)C2c1ccc(Cl)cc1` (stereo not drawn) [Example 19, 6-(4-chlorophenyl)-5-(1,5-dimethyl-6-oxo-1,6-dihydropyridin-3-yl)-1-(2-fluoropyridin-3-yl)-3-methyl-5,6-dihydropyrrolo[3,4-c]pyrazol-4(1H)-one] the same measures were 0.091 µM, 0.164 µM and 0.073 µM.
In the same order, the values of `COc1ccc(-n2nc3c(c2C)C(=O)N(c2cc(C)c(=O)n(C)c2)C3c2ccc(Cl)cc2)cn1` (stereo not drawn) [Example 20a, 6-(4-chlorophenyl)-5-(1,5-dimethyl-6-oxo-1,6-dihydropyridin-3-yl)-2-(6-methoxypyridin-3-yl)-3-methyl-5,6-dihydropyrrolo[3,4-c]pyrazol-4(2H)-one] are 0.104 µM, 0.178 µM and 0.05 µM.
Regarding `COc1ccc(-n2nc(C)c3c2C(c2ccc(Cl)cc2)N(c2cc(C)c(=O)n(C)c2)C3=O)cn1` (stereo not drawn) [Example 20b, 6-(4-chlorophenyl)-5-(1,5-dimethyl-6-oxo-1,6-dihydropyridin-3-yl)-1-(6-methoxypyridin-3-yl)-3-methyl-5,6-dihydropyrrolo[3,4-c]pyrazol-4(1H)-one], in the experiment on THP-1 cells, the GI50 turned out to be 0.0931 µM and the “THP-1 TGI” value amounted to 0.156 µM. Besides, at BRD3 (His-Brd3(20-477)), the IC50 came out at 0.048 µM.
For `COc1ncc(-n2nc(C)c3c2C(c2ccc(Cl)cc2)N(c2cc(C)c(=O)n(C)c2)C3=O)cn1` (stereo not drawn) [Example 21a, 6-(4-chlorophenyl)-5-(1,5-dimethyl-6-oxo-1,6-dihydropyridin-3-yl)-1-(2-methoxypyrimidin-5-yl)-3-methyl-5,6-dihydropyrrolo[3,4-c]pyrazol-4(1H)-one] the same measures were 0.166 µM, 0.331 µM and 0.052 µM.
